Data on 2 molecules can be found in patent publication US20140344996A1, “METHODS AND MEANS TO PRODUCE ABIOTIC STRESS TOLERANT PLANTS” (VIB VZW, priority 2011, published 2014).

Type in all cases: in vivo, Arabidopsis thaliana
The subject of experiment [1] is Arabidopsis seedlings. The experiment can be described thus: Leaf growth of Arabidopsis seedlings in vitro after transfer to Dex medium. The settings on record: 5 μM Dexamethasone in ½ MS medium, transfer at 9DAS.
Experimental: Seedlings were grown in vitro on half-strength Murashige and Skoog medium (Murashige and Skoog 1962) containing 1% sucrose and 6.5 g/L agar at 21° C. under a 16-hour day (110 μmol m^−2 s^−1) and 8-hour night regimen. The growth medium was overlaid with nylon mesh (Prosep, Zaventem, Belgium) of 20 μm pore size to facilitate transfer to induction medium. For expression analysis and growth experiments, 64 resp. 32 seeds were equally distributed on a 15-cm diameter petri dish. […] At 9DAS, when the third leaf is fully proliferating, the mesh with seedlings was transferred to plates containing ½ MS medium with 5 μM Dexamethasone (Dex). For expression analysis and growth experiments, all seedlings were transferred to Dex, including the control lines, to account for the possible effects of Dex on growth or gene expression. […] Here, the non-treated plants will serve as a control for the Dex-induced plants of the same line. […] Growth analysis was performed on the third true leaf harvested at different time points after transfer to Dex. After clearing with 70% ethanol, leaves were mounted in lactic acid on microscopic slides. […] Photographs of leaves and drawings were used to measure leaf area and cell size, respectively, using ImageJ v1.37o (NIH; on the World Wide Web at //rsb.info.nih.gov/ij/), and from these cell numbers were calculated by dividing leaf area with cell area.
Experiment [2] relates to Arabidopsis seedlings. Put plainly: Gene expression in the third leaf after transfer to Dex medium. The settings on record: 5 μM Dexamethasone in ½ MS medium, transfer at 9DAS.
Experimental: At 9DAS, when the third leaf is fully proliferating, the mesh with seedlings was transferred to plates containing ½ MS medium with 5 μM Dexamethasone (Dex). For expression analysis and growth experiments, all seedlings were transferred to Dex, including the control lines, to account for the possible effects of Dex on growth or gene expression. […] Here, the non-treated plants will serve as a control for the Dex-induced plants of the same line. […] Leaf 3 was harvested from plants at 1, 2, 4 and 24 hours after transfer. Samples were obtained from three independent experiments and from multiple plates within the experiment. Whole seedlings were harvested rapidly in an excess of RNAlater solution (Ambion) and, after overnight storage at 4° C., dissected under a binocular microscope on a cooling plate with precision microscissors. Dissected leaves were transferred to a new tube, frozen in liquid nitrogen, and ground with a Retsch machine and 3-mm metal balls. RNA was extracted with TriZol (Invitrogen) and further purified with the RNEASY® Mini Kit (Qiagen). DNA digestion was done on-column with Rnase-free DNase I (Roche). […] Melting curves were analyzed to check primer specificity. […] Ct refers to the number of cycles at which SYBR Green fluorescence reaches an arbitrary value during the exponential phase of the cDNA amplification.
The subject of experiment [3] is Arabidopsis wild-type plants. Put plainly: Growth of the third leaf under mild osmotic stress (mannitol). Conditions: wild-type line, transfer at 9DAS to medium with 25 mM Mannitol. As to the method:
It was opted to study growing plants upon exposure to mild stress, not threatening plant survival but only reducing plant growth by an average of 50%. For loss-of-function analysis, the double erf5/erf6 T-DNA insertion mutant and a wild-type line were grown on control medium until 9DAS and then transferred to growth medium containing 25 mM of the osmoticum Mannitol. Subsequently, upon transfer, growth of the third leaf was measured.
Seedlings were grown in vitro on half-strength Murashige and Skoog medium (Murashige and Skoog 1962) containing 1% sucrose and 6.5 g/L agar at 21° C. under a 16-hour day (110 μmol m^−2 s^−1) and 8-hour night regimen. The growth medium was overlaid with nylon mesh (Prosep, Zaventem, Belgium) of 20 μm pore size to facilitate transfer to induction medium. For expression analysis and growth experiments, 64 resp. 32 seeds were equally distributed on a 15-cm diameter petri dish. […]
Growth analysis was performed on the third true leaf harvested at different time points after transfer to Dex. […] Photographs of leaves and drawings were used to measure leaf area and cell size, respectively, using ImageJ v1.37o (NIH; on the World Wide Web at //rsb.info.nih.gov/ij/), and from these cell numbers were calculated by dividing leaf area with cell area.

Regarding `C[C@@H]1C[C@H]2[C@@H]3CCC4=CC(=O)C=C[C@]4(C)[C@@]3(F)[C@@H](O)C[C@]2(C)[C@@]1(O)C(=O)CO` [Dex, Dexamethasone], the effect on growth entry in the experiment with Arabidopsis seedlings [1] is recorded as “no effect”. In addition, the “effect on gene expression” value in the experiment with Arabidopsis seedlings [2] is recorded as “no effect”.
In the case of `OC[C@@H](O)[C@@H](O)[C@H](O)[C@H](O)CO` [Mannitol], the “growth of the third leaf” value in experiment [3] is recorded as “expected growth reduction”.
